Assay results taken from patent publication US20060276416A1, “Methods and compositions for treating flushing and drug induced weight gain” (Sirtris Pharmaceuticals, Inc., priority 2005, published 2006).

How the values were obtained:
[1] = biological target: T1, recombinant human SIRT1 (Homo sapiens, UniProt Q96EB6); assay: SIRT1 fluorescent deacetylation assay (p53-382 acetylated peptide); type: biochemical
T1 sequence (Q96EB6 1-747): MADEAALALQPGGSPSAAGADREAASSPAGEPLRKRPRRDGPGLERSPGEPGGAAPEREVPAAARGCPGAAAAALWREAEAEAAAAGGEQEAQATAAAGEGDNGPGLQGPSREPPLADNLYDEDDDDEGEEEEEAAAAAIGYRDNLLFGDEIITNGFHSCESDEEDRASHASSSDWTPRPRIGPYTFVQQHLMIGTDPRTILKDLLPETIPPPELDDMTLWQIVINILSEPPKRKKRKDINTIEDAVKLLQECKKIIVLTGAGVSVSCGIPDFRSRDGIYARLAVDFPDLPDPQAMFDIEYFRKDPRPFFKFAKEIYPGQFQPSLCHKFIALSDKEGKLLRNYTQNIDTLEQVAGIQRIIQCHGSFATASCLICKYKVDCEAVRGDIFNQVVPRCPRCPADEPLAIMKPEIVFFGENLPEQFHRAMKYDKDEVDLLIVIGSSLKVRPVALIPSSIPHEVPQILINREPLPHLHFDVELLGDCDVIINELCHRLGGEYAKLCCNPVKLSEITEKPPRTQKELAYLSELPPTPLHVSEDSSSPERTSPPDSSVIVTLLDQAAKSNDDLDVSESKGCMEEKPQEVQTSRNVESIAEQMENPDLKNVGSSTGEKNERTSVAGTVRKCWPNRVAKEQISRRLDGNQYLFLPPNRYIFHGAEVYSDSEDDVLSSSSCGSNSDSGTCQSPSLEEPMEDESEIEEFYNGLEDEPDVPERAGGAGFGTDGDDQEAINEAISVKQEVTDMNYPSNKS
Experimental: To identify compounds that modulate SIRT1 activity, a number of small molecule libraries were screened using a fluorescent deacetylation assay in 96-well plates^26. The substrate used in the assay was a fluorogenic peptide based on the sequence encompassing the p53-K382 acetylation site, a known target of SIRT1 in vivo^20,21,27. […] The small molecule libraries included analogues of nicotinamide, ε-acetyl lysine, NAD^+, nucleotides, nucleotide analogues and purinergic ligands.
From 0.1 to 1 μg of SIRT1 and 1.5 μg of Sir2 were used per deacetylation assay (in 50 μl total reaction) as previously described^26. SIRT1 assays and certain of those for Sir2 employed the p53-382 acetylated substrate (‘Fluor de Lys-SIRT1’, BIOMOL) rather than FdL.
Themed compound libraries (BIOMOL) were used for primary and secondary screening. Most polyphenol compounds were dissolved at 10 mM in dimethylsulfoxide (DMSO) on the day of the assay. For water soluble compounds and negative controls, 1% v/v DMSO was added to the assay. In vitro fluorescence assay results were read in white ½-volume 96-well microplates (Corning Costar 3693) with a CytoFluor™ II fluorescence plate reader (PerSeptive Biosystems, Ex. 360 nm, Em. 460 nm, gain=85). […] Unless otherwise indicated all initial rate measurements were means of three or more replicates, obtained with single incubation times, at which point 5% or less of the substrate initially present had been deacetylated. Calculation of net fluorescence increases included subtraction of a blank value, which in the case of Sir2 was obtained by omitting the enzyme from the reaction and in the case of SIRT1 by adding an inhibitor (200 μM suramin or 1 mM nicotinamide) to the reaction prior to the acetylated substrate. A number of the polyphenols partially quenched the fluorescence produced in the assay and correction factors were obtained by determining the fluorescence increase due to a 3 μM spike of an FdL deacetylated standard (BIOMOL, catalog number KI-142). All error bars represent the standard error of the mean.
All SIRT1 rate measurements used in the calculation of “Ratio to Control Rate” were obtained with 25 μM NAD^+ and 25 μM p53-382 acetylated peptide substrate were performed as described above and in K. T. Howitz et al. Nature (2003) 425: 191. All ratio data were calculated from experiments in which the total deacetylation in the control reaction was 0.25-1.25 μM peptide or 1-5% of the initial concentration of acetylated peptide.

[2] = biological target: recombinant dSir2 (Drosophila melanogaster, UniProt Q9VK34); assay: dSir2 deacetylation assay (Fluor de Lys); type: biochemical, D. melanogaster; settings: dose-dependent; maximum
Chain of recombinant dSir2 (Q9VK34 whole entry): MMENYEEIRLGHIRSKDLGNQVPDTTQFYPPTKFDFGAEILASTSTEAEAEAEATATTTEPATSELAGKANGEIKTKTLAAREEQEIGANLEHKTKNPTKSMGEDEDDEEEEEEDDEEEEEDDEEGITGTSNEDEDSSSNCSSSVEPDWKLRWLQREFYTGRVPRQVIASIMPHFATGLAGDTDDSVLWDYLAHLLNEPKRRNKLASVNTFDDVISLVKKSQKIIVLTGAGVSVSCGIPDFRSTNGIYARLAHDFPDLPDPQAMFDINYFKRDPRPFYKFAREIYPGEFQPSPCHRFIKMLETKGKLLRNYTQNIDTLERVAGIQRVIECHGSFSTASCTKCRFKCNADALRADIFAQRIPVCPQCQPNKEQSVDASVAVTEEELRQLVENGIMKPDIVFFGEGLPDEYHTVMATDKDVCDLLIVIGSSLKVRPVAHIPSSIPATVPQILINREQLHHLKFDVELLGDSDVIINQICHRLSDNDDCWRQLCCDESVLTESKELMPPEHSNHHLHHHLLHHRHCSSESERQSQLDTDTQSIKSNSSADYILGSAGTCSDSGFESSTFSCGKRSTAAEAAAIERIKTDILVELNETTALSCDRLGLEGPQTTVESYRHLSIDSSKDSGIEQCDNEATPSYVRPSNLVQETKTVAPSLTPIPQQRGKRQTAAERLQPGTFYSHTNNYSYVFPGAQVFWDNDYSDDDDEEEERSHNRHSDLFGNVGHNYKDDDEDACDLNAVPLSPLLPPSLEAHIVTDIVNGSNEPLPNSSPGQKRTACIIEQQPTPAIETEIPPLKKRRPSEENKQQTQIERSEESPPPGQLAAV
Experimental: (§1) From 0.1 to 1 μg of SIR-2.1 and 1 μg of dSir2 were used per deacetylation assay as previously described with modifications (SIR-2.1: 200 μM NAD^+, 10 μM Fluor de Lys, FdL; dSir2: 25 μM NAD^+, 10 μM FdL)^26. STACs were dissolved at 10 mM in dimethylsulfoxide (DMSO) the day of the assay. In vitro fluorescence assay results were read in 96-well microplates (Corning Costar 3693) with a Wallac Victor Multilabel counter (Perkin Elmer, excitation at 360 nm, emission at 450 nm). Drosophila S2 cells were grown in Schneider media with fetal calf serum at 23-28° C., seeded at 9×10^4 cells/well, grown overnight and then exposed to 1 μM TSA, 500 μM polyphenols, and 200 μM FdL for 2 hr. Deacetylation of FdL with lysate from whole cells was determined as described^4. Unless otherwise indicated all initial rate measurements were means of three or more replicates obtained with single incubation times, at which point 5% or less of the substrate initially present was deacetylated.

[3] = biological target: T2, SIRT1 deacetylase (BIOMOL) (Homo sapiens, UniProt Q96EB6); assay: High-throughput SIRT1 screening protocol (Fluor de Lys-SIRT1, 384 well); type: biochemical; settings: positive controls; roughly 50 μM, 200 μM NAD+, 5 μM Fluor de Lys-SIRT1
T2 construct: purchased BIOMOL
T2 sequence (Q96EB6 1-747): T1 sequence (Q96EB6 1-747)
Experimental: The reaction mixture contains (final): 0.5 units/reaction SIRT1 deacetylase (BIOMOL); 200 μM NAD^+; 5 μM Fluor de Lys-SIRT1 substrate (BIOMOL); buffer (25 mM Tris/Cl, pH 8.0, 137 mM NaCl, 2.7 mM KCl, 1 mM MgCl2, and 1 mg/ml BSA). In addition, a reaction mixture containing no enzyme was made so that each well receiving compound has a corresponding “no enzyme control” well. Reactions were performed in black 384 well plates (NUNC) in a final volume of 25 μl/well.
The reactions were started by combining enzyme and substrate in a reaction mixture immediately prior to aliquoting in plates (or substrate only for “no enzyme control” plates). Mixture were aliquoted to plates using Biotek μFill (Biotek Instruments). Control mixtures were manually added to designated wells. A library compound was added at a desired concentration by pin transfer to both “with enzyme” and “no enzyme” plates. Compounds were added in at least triplicate (with enzyme reaction in duplicate and no enzyme controls) at a final concentration of roughly 50 μM. The plates were incubated at 37° C. for 30-60 minutes. Then 25 μl of 1× Developer II (BIOMOL) plus 2 mM nicotinamide were added to all wells to stop the reactions. The reactions were left for at least 30 minutes at 37° C. for the signal to develop. The plates were read in a microplate-reading fluorometer capable of excitation at a wavelength in the range of 350-380 nm and detection of emitted light in the range of 440-460 nm. A read time of 0.1 sec per well was used.

[4] = tested on: lysine 382 of p53; assay: p53 K382 acetylation Western blot in UV-irradiated U2OS cells; type: cell-based, human
Experimental: FdL (200 μM) is added to growth media and cells incubated for 1-3 hours to allow FdL to enter the cells and the lysine-deacetylated product (deAc-FdL) to accumulate intracellularly. Cells are lysed with detergent in the presence of 1 μM TSA, 1 mM nicotinamide. […] Cells were grown adherently in DMEM/10% FCS and treated for 1 hour with 200 μM FdL, 1 μM TSA and either vehicle (0.5% final DMSO, Control) or 500 μM of the indicated compound. Intracellular accumulation of deAc-FdL was then determined as described briefly in a. […] Lysates were prepared and analyzed as above.
Whole cell extracts were prepared by lysing cells in buffer containing 150 mM NaCl, 1 mM MgCl2, 10% glycerol, 1% NP40, 1 mM DTT and anti-protease cocktail (Roche).

[5] = tested on: C. elegans; assay: C. elegans lifespan assay; type: in vivo
Experimental: Thus, the presence of resveratrol in the growth media of C. elegans extends their lifespan.
Bristol N2 (Caenorhabditis Genetics Center) was used as the wild-type strain. The sir-2.1 mutant strain was generated by backcrossing VC 199 (sir-2.1 (ok434)) to N2 four times. Cultures were grown on standard NGM media and maintained on E. coli strain OP50. For the lifespan assays, synchronized animals were transferred to treatment plates as young adults (2 d after hatching, day 0 of assay), and were transferred to fresh treatment plates every 2 days for the first 6 to 8 days of the assay. […] For some lifespan trials, heat-killed OP50 were used as a food source. OP50 cultures were heated to 65° C. for 30 minutes, then pelleted and resuspended in 1/10 volume in S Basal supplemented with 10 mM MgSO4. In all assays, worms were monitored daily for mortality by gently probing with a platinum pick. Assays were performed at 24° C. To assay worm feeding rates, worms at the indicated stages were placed on treatment plates (no FUdR) for 4-5 hours, then videoed for 1 minute using a Pixelink PL-662 camera. The frame rate was slowed and the pumping rate of the pharynx was counted. To assay fecundity, gravid hermaphrodites (5 per plate, raised from synchronized L1s on normal or treatment plates) were allowed to lay eggs on their respective media for 5 hours, and the total number of eggs was counted.

[6] = biological target: recombinant SIR-2.1 (Caenorhabditis elegans, UniProt Q21921); assay: SIR-2.1 deacetylation assay (Fluor de Lys); type: biochemical, C. elegans
Chain of recombinant SIR-2.1 (Q21921 whole entry): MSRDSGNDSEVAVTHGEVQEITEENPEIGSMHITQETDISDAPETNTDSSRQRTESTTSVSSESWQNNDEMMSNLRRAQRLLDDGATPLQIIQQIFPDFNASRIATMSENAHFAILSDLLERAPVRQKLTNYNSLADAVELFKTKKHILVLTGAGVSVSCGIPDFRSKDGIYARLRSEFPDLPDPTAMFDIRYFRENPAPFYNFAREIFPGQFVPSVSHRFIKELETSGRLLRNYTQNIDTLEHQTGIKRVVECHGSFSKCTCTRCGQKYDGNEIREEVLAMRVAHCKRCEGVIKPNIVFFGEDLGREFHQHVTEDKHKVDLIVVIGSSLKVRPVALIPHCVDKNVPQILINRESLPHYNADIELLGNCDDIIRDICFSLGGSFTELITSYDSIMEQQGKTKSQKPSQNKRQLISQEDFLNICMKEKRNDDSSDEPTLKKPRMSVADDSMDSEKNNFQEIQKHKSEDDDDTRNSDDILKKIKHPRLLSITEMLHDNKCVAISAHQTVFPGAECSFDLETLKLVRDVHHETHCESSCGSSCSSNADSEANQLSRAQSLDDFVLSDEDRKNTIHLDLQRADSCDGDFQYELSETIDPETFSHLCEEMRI
Experimental: as §1

[7] = tested on: AMPK at Thr172 and ACC at serine 79; assay: AMPK and ACC phosphorylation Western in CHO-HIR cells; type: cell-based
Experimental: Cells were harvested after 30 minutes and lysates were immediately boiled in SDS and subjected to Western analysis with site-specific antibodies. Phosphorylation of AMPK at Thr172 indicates activation of the kinase. Active AMPK phosphorylates and inactivates ACC at serine 79.

## Oc1ccc(/C=C/c2cc(O)cc(O)c2)cc1 [Resveratrol, 3,5,4′-Trihydroxy-trans-stilbene]
[1]; 25 μM NAD+, 25 μM p53-382 acetylated peptide
  Concentration at which the activating effect was essentially saturated: 100 λM
[1]; 1 mM p53-382 acetylated peptide, variable NAD+, +100 μM resveratrol (control 1863)
  Vmax: 1749 AFU/min
[1]; 3 mM NAD+, variable p53-382 acetylated peptide, +100 μM resveratrol (control 1107)
  Vmax: 926 AFU/min
[2]
  Stimulation of deacetylation: ≤ 2.4 fold
[3]
  Activation of SIRT1: 2.2 fold
[4]; 0.5 μM resveratrol, 4 hours pre-treatment, UV radiation
  Level of Ac-K382: marked decrease
[4]; higher concentrations of resveratrol (>50 μM)
  Level of Ac-K382: reversed
[5]; sir-2.1 null mutant
  Lifespan extension (in words): did not exhibit a significant lifespan extension
[5]; wild-type worms, 100 μM, heat-killed or live E. coli, maximum
  Lifespan extension: up to 15%
[6]; 100 μM resveratrol, 10 μM Fluor de Lys
  Km of SIR-2.1 for the co-substrate NAD+: lowered
[6]; dose-dependent, maximum
  Stimulation of deacetylation: up to 2.5 fold
[7]; 100 nM to 50 μM resveratrol, increasing concentrations
  Activation of AMPK: activation of AMPK
[7]; AICAR 500 μM, resveratrol 12.5, 25 or 50 μM, 30 minutes
  Phosphorylation of AMPK and ACC: stimulates phosphorylation of AMPK and ACC
